Measured values reported in patent US6911537B2, “Xenobiotic compound modulated expression systems and uses therefor” (The Salk Institute for Biological Studies, priority 1998, dated 2005).
Read-outs that look alike come from different tables or passages of the source.

Columns and labels:
mouse PXR = target: T1, mouse PXR (Mus musculus, UniProt O54915); assay: Transfection-based reporter assay in CV-1 cells, mouse PXR; settings: 50 μM, tamoxifen 5 μM (FIG. 7B)
T1 sequence (O54915 1-431): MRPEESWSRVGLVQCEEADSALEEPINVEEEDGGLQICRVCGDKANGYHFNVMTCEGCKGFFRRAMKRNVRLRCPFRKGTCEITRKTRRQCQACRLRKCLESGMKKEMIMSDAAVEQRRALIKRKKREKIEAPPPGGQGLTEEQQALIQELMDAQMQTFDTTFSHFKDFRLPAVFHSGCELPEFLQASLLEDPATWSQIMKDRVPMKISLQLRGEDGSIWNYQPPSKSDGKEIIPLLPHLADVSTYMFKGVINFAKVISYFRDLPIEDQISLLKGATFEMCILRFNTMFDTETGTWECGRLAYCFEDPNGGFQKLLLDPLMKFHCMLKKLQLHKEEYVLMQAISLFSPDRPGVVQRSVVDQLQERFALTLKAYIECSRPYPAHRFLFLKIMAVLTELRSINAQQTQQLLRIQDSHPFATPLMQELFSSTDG
Text: FIGS. 7A-C are bar graphs illustrating the ability of a panel of compounds to activate a representative of three members of the nuclear receptor superfamily, human SXR (FIG. 7A); mouse PXR (FIG. 7B); and human estrogen receptor alpha (hERα; FIG. 7C).

endogenous PXR [1] = target: T2, endogenous PXR (Rattus norvegicus, UniProt Q9R1A7); assay: Human CYP3A4 cellular promoter reporter in primary rat hepatocytes, endogenous receptor; settings: rodent cellular environment (FIG. 8B)
T2 sequence (Q9R1A7 1-431): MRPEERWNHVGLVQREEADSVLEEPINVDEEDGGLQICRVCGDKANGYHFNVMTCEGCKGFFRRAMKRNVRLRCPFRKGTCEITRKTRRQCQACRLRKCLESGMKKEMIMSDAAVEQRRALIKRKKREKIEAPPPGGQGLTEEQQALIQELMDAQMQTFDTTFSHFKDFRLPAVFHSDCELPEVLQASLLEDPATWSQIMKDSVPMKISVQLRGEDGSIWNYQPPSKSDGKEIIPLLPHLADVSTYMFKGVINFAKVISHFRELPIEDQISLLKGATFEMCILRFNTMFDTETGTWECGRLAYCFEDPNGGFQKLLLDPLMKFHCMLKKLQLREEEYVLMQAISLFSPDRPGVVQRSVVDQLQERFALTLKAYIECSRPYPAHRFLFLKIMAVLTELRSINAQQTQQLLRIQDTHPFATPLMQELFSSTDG
Text: (§1) The PCR-amplified sequences and target mutagenesis were confirmed by DNA sequencing.
(§2) All compounds were purchased from Sigma.

CYP3A11 gene = settings: single dose 24 h before sacrifice
Protocol: The animals were allowed free access to food and water at all times. […] When necessary, mice were treated with a single intraperitoneal injection of DEX (50 mg/kg), PCN (40 mg/kg), or CTZ (50 mg/kg).
To detect specific transcripts, [^32P]-cDNA probes labeled by Random Primer Labeling Kit (Boringher) were hybridized to the membranes. The probe used to detect transgene contains both the SXR cDNA and the SV40 sequences. […] The filters were subsequently stripped and rehybridized with a murine glyceraldehyde-3-phosphate dehydrogenase (GAPDH) cDNA probe for RNA loading normalization.
Tissues were harvested 24 h later and subjected to Northern blot analysis.

SXR [2] = target: T3, SXR (Homo sapiens, UniProt O75469); assay: Transfection-based reporter assay in CV-1 cells, GAL4-SXR or full-length SXR; set-up: Activation of SXR response elements (DR-3, DR-4, DR-5) by full-length SXR: dose or concentration left out as unconfirmed; settings: for Activation of SXR in transfection-based assays: GAL4-SXR LBD chimera or full-length SXR, CV-1 cells, steroids at high doses, up to 50 mM [sic]; for Activation of SXR response elements (DR-3, DR-4, DR-5) by full-length SXR: cotransfection, panel of steroids as printed (FIG. 4)
T3 sequence (O75469 1-434): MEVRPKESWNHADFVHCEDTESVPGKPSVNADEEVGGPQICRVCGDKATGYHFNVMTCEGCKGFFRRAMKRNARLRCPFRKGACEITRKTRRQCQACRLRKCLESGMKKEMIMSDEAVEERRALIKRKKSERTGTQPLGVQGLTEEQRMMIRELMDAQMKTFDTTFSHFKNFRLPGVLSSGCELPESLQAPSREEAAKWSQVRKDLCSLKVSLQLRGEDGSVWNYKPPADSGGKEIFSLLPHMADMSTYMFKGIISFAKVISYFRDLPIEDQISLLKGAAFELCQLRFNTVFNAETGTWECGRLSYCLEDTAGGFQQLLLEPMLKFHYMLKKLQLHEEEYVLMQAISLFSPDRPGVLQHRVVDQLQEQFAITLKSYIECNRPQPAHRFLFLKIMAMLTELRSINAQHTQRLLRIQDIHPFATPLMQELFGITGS
T3 sequence (P19793 1-462 partner): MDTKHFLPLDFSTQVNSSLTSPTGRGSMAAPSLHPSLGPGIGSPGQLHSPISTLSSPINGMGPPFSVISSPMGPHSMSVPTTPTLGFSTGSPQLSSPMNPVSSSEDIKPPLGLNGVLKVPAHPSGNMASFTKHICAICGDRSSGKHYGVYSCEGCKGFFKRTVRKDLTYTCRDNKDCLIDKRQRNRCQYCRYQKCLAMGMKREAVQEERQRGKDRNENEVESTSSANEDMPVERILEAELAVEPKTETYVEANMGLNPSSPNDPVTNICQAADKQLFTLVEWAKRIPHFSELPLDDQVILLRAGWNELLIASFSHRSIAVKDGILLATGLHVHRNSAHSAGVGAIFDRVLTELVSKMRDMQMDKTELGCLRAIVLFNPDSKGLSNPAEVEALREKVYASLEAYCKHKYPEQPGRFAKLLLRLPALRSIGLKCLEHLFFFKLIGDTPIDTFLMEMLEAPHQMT
Text: (§4) Thus, the protein coding region of SXR was PCR amplified and subcloned into NcoI and BamH1 sites of the vector pCDG1 (see Blumberg et al., supra). During this process the putative initiator Leu was converted to Met with a Kozak consensus sequence CCATGG.

SXR [3] = target: T3, SXR
Text: as §4

endogenous PXR [4] = target: T2, endogenous PXR; settings: hepatocytes
Protocol: as §1, §2
(§3) A panel of natural and synthetic steroid and nonsteroid compounds were tested for their ability to activate SXR and/or PXR in transfection-based assays using primary rat hepatocytes as recipient cells and the cellular promoters of the rat CYP3A23 gene or the human CYP3A4 gene as reporters.

SXR [5] = target: T4, SXR (Homo sapiens, UniProt O75469); remark: listed apart in the source
T4 sequence (O75469 1-434): T3 sequence (O75469 1-434)
Protocol: as §1, §2, §3

[6] = clinical trials, of 2510 patients; cited from earlier work

Compound: CC(=O)[C@H]1[C@H](C#N)C[C@H]2[C@@H]3CC=C4C[C@@H](O)CC[C@]4(C)[C@H]3CC[C@@]21C [PCN, pregnenolone-16-carbonitrile]
- Activation of mouse PXR (mouse PXR): preferentially activated
- Activation of human CYP3A4 promoter reporter via endogenous PXR (endogenous PXR [1]): can be activated
- Induction of liver CYP3A11 expression in Alb-SXR transgenic mice (CYP3A11 gene; RIF 5 mg/kg, BRL 20 mg/kg, troglitazone and ciglitazone 150 mg/kg by gavage, CTZ 50 mg/kg, PCN 40 mg/kg i.p.): equally efficacious CYP3A11 inducer
- Induction of liver CYP3A11 expression in wild type / nontransgenic mice (CYP3A11 gene; same doses as in transgenic mice): equally efficacious CYP3A11 inducer
- Activation of SXR in transfection-based assays (SXR [2]): activated
- Activation of SXR response elements (DR-3, DR-4, DR-5) by full-length SXR (SXR [2]): among the best activators
- Activation of human SXR by compounds known to induce CYP3A4 (SXR [3]): weak activator
- Activation of CYP3A23 promoter reporter in the absence of SXR (endogenous PXR [4]): most potent and efficacious tested activators
- Activation of CYP3A23 promoter reporter with mutated DR-3 element (DR3/M1, DR3/M2) (SXR [5]): abolished
- Inducibility of CYP3A23 promoter reporter with DR-3 replaced by IR-6 element (DR3/IR6) (SXR [5]): rescueS the inducibility
- Induction of CYP3A23 promoter reporter with co-transfection of SXR (SXR [5]): remained unchanged

Compound: C[C@]12CC[C@@H]3c4ccc(O)cc4CC[C@H]3[C@@H]1CC[C@@H]2O [estradiol, 17β-estradiol]
- Activation of mouse PXR (mouse PXR): similarly activated
- Activation of human SXR by compounds known to induce CYP3A4 (SXR [2]; 50 μM, tamoxifen 5 μM (FIG. 7A)): most potent activators
- Activation of SXR in transfection-based assays (SXR [2]): remarkably effective activators
- Activation of SXR response elements (DR-3, DR-4, DR-5) by full-length SXR (SXR [2]): among the best activators
- Induction of CYP3A23 promoter reporter with co-transfection of SXR (SXR [5]): significant induction

Compound: C[C@]12CC[C@H]3[C@@H](CCC4=CC(=O)CC[C@@]43C)[C@@H]1CC[C@@H]2O [testosterone]
- Activation of mouse PXR (mouse PXR): similarly activated
- Activation of SXR in transfection-based assays (SXR [3]): activated

Compound: Cc1c(C)c2c(c(C)c1O)CCC(C)(COc1ccc(CC3SC(=O)NC3=O)cc1)O2 (stereo not shown) [troglitazone]
- Incidence of hepatotoxicity (alanine aminotransferase level > three times the upper limit of normal) [6]: 1.9%
